Data as given in ChEMBL document CHEMBL3046054, “Chemico-biological investigation of rhizome essential oil of Zingiber morannative to Northeast India” (Med Chem Res, 2013).
Values after ≈ are worked out from the molar mass of the structure shown. Active and inactive are the calls of the source. No cut-off for these calls is given here.

Assays:
HeLa [1] = assay: Induction of apoptosis in Homo sapiens (human) HeLa cells assessed as membrane blebbing at <40 ug/ml after 24 hr by light microscopic analysis; type: functional, cell-based
HeLa [2] = assay: Induction of apoptosis in Homo sapiens (human) HeLa cells assessed as detachment from substratum at <40 ug/ml after 24 hr by light microscopic analysis; type: functional, cell-based
HeLa [3] = assay: Induction of apoptosis in Homo sapiens (human) HeLa cells assessed as loss of cell to cell contact at <40 ug/ml after 24 hr by light microscopic analysis; type: functional, cell-based
HeLa [4] = assay: Cytotoxicity against Homo sapiens (human) HeLa cells assessed as cell death at 10 to 100 ug/ml after 48 hr by light microscopic analysis; type: functional, cell-based
HeLa [5] = assay: Induction of apoptosis in Homo sapiens (human) HeLa cells assessed as rounded cells at 10 to 100 ug/ml after 48 hr by light microscopic analysis; type: functional, cell-based
HeLa [6] = assay: Induction of apoptosis in Homo sapiens (human) HeLa cells assessed as floating cells at 10 to 50 ug/ml after 24 hr by light microscopic analysis; type: functional, cell-based
HeLa [7] = assay: Induction of apoptosis in Homo sapiens (human) HeLa cells assessed as rounded cells at 10 to 50 ug/ml after 24 hr by light microscopic analysis; type: functional, cell-based
HeLa [8] = assay: Cytotoxicity against Homo sapiens (human) HeLa cells up to 3 days by MTT assay; type: functional, cell-based; details: for IC50: 72 h
HeLa [9] = assay: Growth inhibition of Homo sapiens (human) HeLa cells at 10 to 30 ug/ml up to 3 days by MTT assay; type: functional
HeLa [10] = assay: Induction of apoptosis in Homo sapiens (human) HeLa cells assessed as fragmented nuclei at 10 to 100 ug/ml after 24 hr by acridine orange/ethidium bromide-based inverted fluorescence microscopic analysis; type: functional, cell-based
HeLa [11] = assay: Cytotoxicity against Homo sapiens (human) HeLa cells assessed as decrease in cell viability at 10 to 100 ug/ml after 24 hr by acridine orange/ethidium bromide-based inverted fluorescence microscopic analysis; type: functional
HeLa [12] = assay: Induction of necrosis in Homo sapiens (human) HeLa cells assessed as dissolution of cytoplasmic membrane at >50 ug/ml after 24 hr by light microscopic analysis; type: functional, cell-based
HeLa [13] = assay: Induction of necrosis in Homo sapiens (human) HeLa cells assessed as chromatin flocculation at >50 ug/ml after 24 hr by light microscopic analysis; type: functional, cell-based
HeLa [14] = assay: Induction of necrosis in Homo sapiens (human) HeLa cells assessed as dissolution of nuclear membrane at >50 ug/ml after 24 hr by light microscopic analysis; type: functional, cell-based
HeLa [15] = assay: Induction of necrosis in Homo sapiens (human) HeLa cells assessed as increase in cytoplasmic vacuolization at >50 ug/ml after 24 hr by light microscopic analysis; type: functional, cell-based
HeLa [16] = assay: Induction of necrosis in Homo sapiens (human) HeLa cells assessed as increase in cytoplasmic volume at >50 ug/ml after 24 hr by light microscopic analysis; type: functional, cell-based
HeLa [17] = assay: Induction of necrosis in Homo sapiens (human) HeLa cells assessed as increase in nucleus volume at >50 ug/ml after 24 hr by light microscopic analysis; type: functional, cell-based
HeLa [18] = assay: Induction of apoptosis in Homo sapiens (human) HeLa cells assessed as apoptotic bodies at <40 ug/ml after 24 hr by light microscopic analysis; type: functional, cell-based
HeLa [19] = assay: Induction of apoptosis in Homo sapiens (human) HeLa cells assessed as apoptotic bodies at <55 ug/ml after 24 hr by light microscopic analysis; type: functional, cell-based
HeLa [20] = assay: Induction of apoptosis in Homo sapiens (human) HeLa cells assessed as membrane blebbing at <55 ug/ml after 24 hr by light microscopic analysis; type: functional, cell-based
HeLa [21] = assay: Induction of apoptosis in Homo sapiens (human) HeLa cells assessed as detachment from substratum at <55 ug/ml after 24 hr by light microscopic analysis; type: functional, cell-based
HeLa [22] = assay: Induction of apoptosis in Homo sapiens (human) HeLa cells assessed as loss of cell to cell contact at <55 ug/ml after 24 hr by light microscopic analysis; type: functional, cell-based

## CC(C)=CCCC(C)=CC=O
HeLa [1]
  Activity: Active
HeLa [2]
  Activity: Active
HeLa [3]
  Activity: Active
HeLa [4]
  Activity: Active
HeLa [5]
  Activity: Active
HeLa [6]
  Activity: Active
HeLa [7]
  Activity: Active
HeLa [8]
  Activity: Dose-dependent effect
  IC50: 39.6 µg/mL (≈ 260 µM)
HeLa [9]
  growth inhibition (GI): 60%
HeLa [10]
  Activity: Active
HeLa [11]
  Activity: Active
HeLa [12]
  Activity: Active
HeLa [13]
  Activity: Active
HeLa [14]
  Activity: Active
HeLa [15]
  Activity: Active
HeLa [16]
  Activity: Active
HeLa [17]
  Activity: Active
HeLa [18]
  Activity: Active

## C=C1C2CCC(C2)C1(C)C (configuration not stated) [CAMPHENE]
HeLa [1]
  Activity: Active
HeLa [2]
  Activity: Active
HeLa [3]
  Activity: Active
HeLa [4]
  Activity: Active
HeLa [5]
  Activity: Active
HeLa [6]
  Activity: Active
HeLa [7]
  Activity: Active
HeLa [8]
  Activity: Dose-dependent effect
  IC50: 38.5 µg/mL (≈ 283 µM)
HeLa [9]
  growth inhibition (GI): 60%
HeLa [10]
  Activity: Active
HeLa [11]
  Activity: Active
HeLa [12]
  Activity: Active
HeLa [13]
  Activity: Active
HeLa [14]
  Activity: Active
HeLa [15]
  Activity: Active
HeLa [16]
  Activity: Active
HeLa [17]
  Activity: Active
HeLa [18]
  Activity: Active

## C=CC(C)(O)CCC=C(C)C (configuration not stated) [LINALOOL]
HeLa [4]
  Activity: Active
HeLa [5]
  Activity: Active
HeLa [6]
  Activity: Active
HeLa [7]
  Activity: Active
HeLa [8]
  Activity: Dose-dependent effect
  IC50: 55.4 µg/mL (≈ 359 µM)
HeLa [9]
  growth inhibition (GI): 60%
HeLa [10]
  Activity: Active
HeLa [11]
  Activity: Active
HeLa [12]
  Activity: Active
HeLa [13]
  Activity: Active
HeLa [14]
  Activity: Active
HeLa [15]
  Activity: Active
HeLa [16]
  Activity: Active
HeLa [17]
  Activity: Active
HeLa [19]
  Activity: Active
HeLa [20]
  Activity: Active
HeLa [21]
  Activity: Active
HeLa [22]
  Activity: Active
